Reference: article PMC8713164, “Development of a 1,2,4-Triazole-Based Lead Tankyrase Inhibitor: Part II” (Journal of Medicinal Chemistry, 2021)
Values joined by “and” are separate entries in the source; they are usually repeats but may differ in a detail not shown here. Equal values may be shown once. Read-outs that look alike come from different tables or passages of the source.

Tests used:
TNKS2 = target: T1, TNKS2 (Homo sapiens, UniProt Q9H2K2); test: TNKS2 biochemical assay (unreacted NAD+ fluorescence); conditions: TNKS2 5 nM, 500 nM NAD+, 20 h; quadruplicates; 95% confidence intervals in parentheses; 24: averages of multiple independent measurements; read-out: IC50 TNKS2
T1 construct: TNKS2 (residues 873–1162); made in house
T1 sequence (Q9H2K2 873-1162): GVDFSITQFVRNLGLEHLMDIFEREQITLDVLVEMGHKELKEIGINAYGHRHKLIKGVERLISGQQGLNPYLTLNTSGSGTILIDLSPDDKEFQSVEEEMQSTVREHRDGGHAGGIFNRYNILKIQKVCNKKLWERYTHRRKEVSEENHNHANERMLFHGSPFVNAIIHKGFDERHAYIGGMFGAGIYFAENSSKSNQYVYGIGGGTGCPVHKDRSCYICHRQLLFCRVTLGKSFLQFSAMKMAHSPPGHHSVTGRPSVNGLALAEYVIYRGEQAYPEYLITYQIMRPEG
Description: New compounds were prepared in half-log dilution series, and the reactions were carried out in quadruplicates with protein and compound controls to exclude the effect of compound autofluorescence. All reactions were performed at ambient temperature. TNKS1 (20 nM) or TNKS2 (5 nM) was incubated for 20 h in assay buffer (50 mM Bis-Tris propane (BTP), pH 7.0, 0.5 mM Tris(2-carboxyethyl)phosphine (TCEP), 0.01% Triton X-100) with compound and 10 μM or 500 nM NAD^+, respectively.

WNT/β-catenin signaling = test: cellular (HEK293) WNT/β-catenin signaling luciferase reporter assay; format: cell-based, human
[1] = Homo sapiens, HEK293, read-out: IC50 HEK293, HEK293 WNT/β-catenin signaling reporter assay, triplicates, 24: averages of multiple independent measurements
[2] = read-out: IC50 HEK293, HEK293 WNT/β-catenin signaling reporter assay, triplicates, 24: averages of multiple independent measurements
[3] = Homo sapiens, HEK293, read-out: IC50 HEK293

| SMILES | IC50 (TNKS2) | IC50 (WNT/β-catenin signaling; [1]) [nM] | IC50 (WNT/β-catenin signaling; [2]) [nM] | IC50 (WNT/β-catenin signaling; [3]) [nM] |
| --- | --- | --- | --- | --- |
| O=C(N[C@H]1C[C@H](c2nnc(-c3ccc(OC4CC4)cn3)n2-c2ccccc2F)C1)c1ccccn1 [Compound 7, N-(trans-3-(5-(5-Cyclopropoxypyridin-2-yl)-4-(2-fluorophenyl)-4H-1,2,4-triazol-3-yl)cyclobutyl)picolinamide] | 8.6 nM | 49 | – | – |
| CC(C)Oc1ccc(-c2nnc([C@H]3C[C@H](NC(=O)c4ccccn4)C3)n2-c2ccccc2F)nc1 [Compound 8, N-(trans-3-(4-(2-Fluorophenyl)-5-(5-isopropoxypyridin-2-yl)-4H-1,2,4-triazol-3-yl)cyclobutyl)picolinamide] | 12 nM | 110 | – | – |
| O=C(N[C@H]1C[C@H](c2nnc(-c3ccccc3)n2-c2ccccc2F)C1)c1ccccn1 [Compound 9, N-(trans-3-(4-(2-Fluorophenyl)-5-phenyl-4H-1,2,4-triazol-3-yl)cyclobutyl)picolinamide] | 220 nM and 216 nM | 789 | – | – |
| O=C(N[C@H]1C[C@H](c2nnc(-c3cnccn3)n2-c2ccccc2F)C1)c1ccccn1 [Compound 10, N-(trans-3-(4-(-2-Fluorophenyl)-5-(pyrazin-2-yl)-4H-1,2,4-triazol-3-yl)cyclobutyl)picolinamide] | 93 nM | 355 | – | – |
| CCOc1ccc(-c2nnc([C@H]3C[C@H](NC(=O)c4ccccn4)C3)n2-c2ccccc2)nc1 [Compound 11, N-(trans-3-(5-(5-Ethoxypyridin-2-yl)-4-phenyl-4H-1,2,4-triazol-3-yl)cyclobutyl)picolinamide] | 5.2 nM | 65 | – | – |
| CCOc1ccc(-c2nnc([C@H]3C[C@H](NC(=O)c4ccccn4)C3)n2-c2cccc(Cl)c2)nc1 [Compound 12, N-(trans-3-(4-(3-Chlorophenyl)-5-(5-ethoxypyridin-2-yl)-4H-1,2,4-triazol-3-yl)cyclobutyl)picolinamide] | 13 nM | 83 | – | – |
| CCOc1ccc(-c2nnc([C@H]3C[C@H](NC(=O)c4ccccn4)C3)n2-c2ccc(C)s2)nc1 [Compound 13, N-(trans-3-(5-(5-Ethoxypyridin-2-yl)-4-(5-methylthiophen-2-yl)-4H-1,2,4-triazol-3-yl)cyclobutyl)picolinamide] | 4.6 nM | 37 | – | – |
| CCOc1ccc(-c2nnc([C@H]3C[C@H](NC(=O)c4ccccn4)C3)n2-c2ccc(Cl)s2)nc1 [Compound 14, N-(trans-3-(4-(5-Chlorothiophen-2-yl)-5-(5-ethoxypyridin-2-yl)-4H-1,2,4-triazol-3-yl)cyclobutyl)picolinamide] | 12 nM | 27 | – | – |
| CCOc1ccc(-c2nnc([C@H]3C[C@H](NC(=O)c4ccnc5cccnc45)C3)n2-c2ccccn2)nc1 [Compound 16a, N-(trans-3-(5-(5-Ethoxypyridin-2-yl)-4-(pyridin-2-yl)-4H-1,2,4-triazol-3-yl)cyclobutyl)-1,5-naphthyridine-4-carboxamide] | 5.8 nM | 36 | – | – |
| CCOc1ccc(-c2nnc([C@H]3C[C@H](NC(=O)c4ccnc5cc(F)cnc45)C3)n2-c2ccccn2)nc1 [Compound 16b, N-(trans-3-(5-(5-Ethoxypyridin-2-yl)-4-(pyridin-2-yl)-4H-1,2,4-triazol-3-yl)cyclobutyl)-7-fluoro-1,5-naphthyridine-4-carboxamide] | 8.5 nM | 8.7 | 9 | – |
| CCOc1ccc(-c2nnc([C@H]3C[C@H](NC(=O)c4ccnc5cccnc45)C3)n2-c2cccnc2)nc1 [Compound 17a, N-(trans-3-(5-(5-Ethoxypyridin-2-yl)-4-(pyridin-3-yl)-4H-1,2,4-triazol-3-yl)cyclobutyl)-1,5-naphthyridine-4-carboxamide] | 4.5 nM | 16 | – | – |
| CCOc1ccc(-c2nnc([C@H]3C[C@H](NC(=O)c4ccnc5cc(F)cnc45)C3)n2-c2cccnc2)nc1 [Compound 17b, N-(trans-3-(5-(5-Ethoxypyridin-2-yl)-4-(pyridin-3-yl)-4H-1,2,4-triazol-3-yl)cyclobutyl)-7-fluoro-1,5-naphthyridine-4-carboxamide] | 5.8 nM | 9.1 | 9 | – |
| CCOc1ccc(-c2nnc([C@H]3C[C@H](NC(=O)c4ccnc5cccnc45)C3)n2-c2ccncc2)nc1 [Compound 18a, N-(trans-3-(5-(5-Ethoxypyridin-2-yl)-4-(pyridin-4-yl)-4H-1,2,4-triazol-3-yl)cyclobutyl)-1,5-naphthyridine-4-carboxamide] | 5.4 nM | 13 | – | – |
| CCOc1ccc(-c2nnc(C34CC(NC(=O)c5ccnc6cccnc56)(C3)C4)n2-c2ccccn2)nc1 [Compound 19, N-(3-(5-(5-Ethoxypyridin-2-yl)-4-(pyridin-2-yl)-4H-1,2,4-triazol-3-yl)bicyclo[1.1.1]pentan-1-yl)-1,5-naphthyridine-4-carboxamide] | 13 nM | – | – | 20 |
| CCOc1ccc(-c2nnc(C34CC(NC(=O)c5ccnc6cccnc56)(C3)C4)n2-c2cccnc2)nc1 [Compound 20, N-(3-(5-(5-Ethoxypyridin-2-yl)-4-(pyridin-3-yl)-4H-1,2,4-triazol-3-yl)bicyclo[1.1.1]pentan-1-yl)-1,5-naphthyridine-4-carboxamide] | 9.6 nM | – | – | 30 |
| CCOc1ccc(-c2nnc(C34CC(NC(=O)c5ccnc6cccnc56)(C3)C4)n2-c2ccncc2)nc1 [Compound 21, N-(3-(5-(5-Ethoxypyridin-2-yl)-4-(pyridin-4-yl)-4H-1,2,4-triazol-3-yl)bicyclo[1.1.1]pentan-1-yl)-1,5-naphthyridine-4-carboxamide] | 9.4 nM | – | – | 43 |
| CCOc1ccc(-c2nnc([C@H]3C[C@H](NC(=O)c4ccnc5cc(F)cnc45)C3)n2-c2ccc(C)s2)nc1 [Compound 22b, N-(trans-3-(5-(5-Ethoxypyridin-2-yl)-4-(5-methylthiophen-2-yl)-4H-1,2,4-triazol-3-yl)cyclobutyl)-7-fluoro-1,5-naphthyridine-4-carboxamide] | 1.6 nM | 1 | – | – |
| CCOc1ccc(-c2nnc([C@H]3C[C@H](NC(=O)c4cccc5cccnc45)C3)n2-c2ccc(C)s2)nc1 [Compound 23, N-(trans-3-(5-(5-Ethoxypyridin-2-yl)-4-(5-methylthiophen-2-yl)-4H-1,2,4-triazol-3-yl)cyclobutyl)quinoline-8-carboxamide] | 2.4 nM | 1 | – | – |
| CCOc1ccc(-c2nnc([C@H]3C[C@H](NC(=O)c4cccc5ncc(C)nc45)C3)n2-c2ccccc2F)nc1 [Compound 26, N-(trans-3-(5-(5-Ethoxypyridin-2-yl)-4-(2-fluorophenyl)-4H-1,2,4-triazol-3-yl)cyclobutyl)-3-methylquinoxaline-5-carboxamide] | 1.5 nM | 2.2 | – | – |
| CCOc1ccc(-c2nnc([C@H]3C[C@H](NC(=O)c4cccc5nc(C)cnc45)C3)n2-c2ccccc2F)nc1 [Compound 27, N-(trans-3-(5-(5-Ethoxypyridin-2-yl)-4-(2-fluorophenyl)-4H-1,2,4-triazol-3-yl)cyclobutyl)-2-methylquinoxaline-5-carboxamide] | 1.1 nM | 2.4 | – | – |
| CCOc1ccc(-c2nnc([C@H]3C[C@H](NC(=O)c4cccc5nc(C)c(C)nc45)C3)n2-c2ccccc2F)nc1 [Compound 28, N-(trans-3-(5-(5-Ethoxypyridin-2-yl)-4-(2-fluorophenyl)-4H-1,2,4-triazol-3-yl)cyclobutyl)-2,3-dimethylquinoxaline-5-carboxamide] | 2.6 nM | 4.3 | – | – |
